Data: patent US20240400575A1, “POLYCYCLIC COMPOUNDS AS SOLUBLE EPOXIDE HYDROLASE INHIBITORS” (Universitat De Barcelona, priority 2018, published 2024)

Target: T1, recombinant human sEH (hsEH) (Homo sapiens, UniProt P34913)
T1 construct: purchased Cayman Chemical 10011669
T1 sequence (P34913 1-555): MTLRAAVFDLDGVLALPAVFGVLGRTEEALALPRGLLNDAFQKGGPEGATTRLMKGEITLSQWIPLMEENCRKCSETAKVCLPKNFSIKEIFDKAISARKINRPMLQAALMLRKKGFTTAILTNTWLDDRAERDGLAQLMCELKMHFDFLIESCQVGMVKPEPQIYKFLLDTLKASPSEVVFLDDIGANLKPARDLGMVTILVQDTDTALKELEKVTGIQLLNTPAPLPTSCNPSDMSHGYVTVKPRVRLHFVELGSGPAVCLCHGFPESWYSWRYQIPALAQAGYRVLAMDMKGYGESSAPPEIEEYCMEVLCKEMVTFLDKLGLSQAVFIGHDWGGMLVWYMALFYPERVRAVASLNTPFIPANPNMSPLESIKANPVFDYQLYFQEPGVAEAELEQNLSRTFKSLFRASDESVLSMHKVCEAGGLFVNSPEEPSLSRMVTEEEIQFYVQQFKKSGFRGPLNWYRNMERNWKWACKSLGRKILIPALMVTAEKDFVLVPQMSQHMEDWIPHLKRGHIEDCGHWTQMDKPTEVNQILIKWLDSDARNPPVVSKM
Test: In vitro determination of sEH inhibition activity (fluorescent assay, PHOME substrate)
Assay type: biochemical
Conditions: fluorescence, Bis/Tris HCl pH 7.0 with 0.1 mg/mL BSA
Experimental: Add 5 μL of DMSO to background and positive control wells, and then add 5 μL of inhibitor solution in inhibitor wells. Add 5 μL of the solution of hsEH to the positive control and inhibitor wells and stir the mixture. Prepare a 1/21 dilution of the solution of PHOME with assay buffer according to final volume required, and then add 105 μL of each well. Shake carefully the plate for 10 seconds and incubate for 5 minutes at room temperature. […] The intensity of fluorescence was used to analyze and calculate the IC50 values. Results were obtained by regression analysis from at least three data points in a linear region of the curve. IC50 values are average of minimum three independent replicates.

IC50 [nM]	SMILES
< 10	CC(=O)c1ccc(N2CCC(NC(=O)NC34CC5CC(C)(CC(C3)c3ccccc35)C4)CC2)cc1 [Example 64, 1-(1-(4-acetylphenyl)piperidin-4-yl)-3-(9-methyl-5,6,8,9,10,11-hexahydro-7H-5,9:7,11-dimethanobenzo[9]annulen-7-yl)urea]
< 10	CC12CC3CC(NC(=O)NC4CC5CCC(C4)N5Cc4ccccc4)(CC(C1)c1ccccc13)C2 [Example 67, 1-((1R,3s,5S)-8-benzyl-8-azabicyclo[3.2.1]octan-3-yl)-3-(9-methyl-5,6,8.9.10,11-hexahydro-7H-5.9:7,11-dimethanobenzo[9]annulen-7-yl)urea]
100 to 1000	CC(=O)N1CCC(CC(=O)NC23CC4CC(C)(CC(C2)c2ccccc24)C3)CC1 [Example 57, 2-(1-acetylpiperidin-4-yl)-N-(9-methyl-5,6,8,9,10,11-hexahydro-7H-5,9:7,11-dimethanobenzo[9]annulen-7-yl)acetamide]
10 to 50	CC(=O)N1CCC(NC(=O)NC23CC4CC2CC(C3)c2ccccc24)CC1 [Example 72, 1-(1-acetylpiperidin-4-yl)-3-(5,8,9,10-tetrahydro-5,8:7,10-dimethano-benzo[8]annulen-7(6H)-yl)urea]
100 to 1000	CC12CC3CC(NC(=O)CC4CCN(Cc5ccccc5)CC4)(CC(C1)c1ccccc13)C2 [Example 60, 2-(1-benzylpiperidin-4-yl)-N-(9-methyl-5,6,8,9,10,11-hexahydro-7H-5.9:7,11-dimethanobenzo[9]annulen-7-yl)acetamide]
100 to 1000	COC12CC3CC(NC(=O)Nc4nc5ccccc5s4)(CC(C1)c1ccccc13)C2 [Example 73, 1-(benzo[d]thiazol-2-yl)-3-(9-methoxy-5,6,8,9,10,11-hexahydro-7H-5,9:7,11-dimethanobenzo[9]annulen-7-yl)urea]
100 to 1000	CC12CC3CC(NC(=S)Nc4ccc(C(F)(F)F)cc4)(CC(C1)c1ccccc13)C2 [Example 35, 1-(9-methyl-5,6,8,9,10,11-hexahydro-7H-5,9:7,11-dimethanobenzo[9]annulen-7-yl)-3-(4-(trifluoromethyl)phenyl)thiourea]
< 10	CC(=O)N1CCC(NC(=O)NC23CC4CC(C)(CC(C2)c2cc(F)ccc24)C3)CC1 (centres unmarked) [Example 68, 1-(1-acetylpiperidin-4-yl)-3-(2-fluoro-9-methyl-5,6,8,9,10,11-hexahydro-7H-5,9:7,11-dimethanobenzo[9]annulen-7-yl)urea]
100 to 1000	CC(=O)N1CCC(NC(=O)NC23CC4CC(C)(CC(C2)c2ccccc24)O3)CC1 [Example 36, 1-(1-acetylpiperidin-4-yl)-3-(5-methyl-1,5,6,7-tetrahydro-1,5:3,7-dimethanobenzo[e]oxonin-3(2H)-yl)urea]
10 to 50	CC(C)S(=O)(=O)N1CCC(CC(=O)NC23CC4CC(C)(CC(C2)c2ccccc24)C3)CC1 [Example 56, 2-[1-(isopropylsulfonyl)piperidin-4-yl]-N-(9-methyl-5,6,8,9,10,11-hexahydro-7H-5,9:7,11-dimethanobenzo[9]annulen-7-yl)acetamide]
10 to 50	CC(=O)N1CCC(NC(=O)NC23CC4CC(C)(CC(C2)c2cc(N)ccc24)C3)CC1 (centres unmarked) [Example 53, 1-(1-acetylpiperidin-4-yl)-3-(2-amino-9-methyl-5,6,8,9,10,11-hexa-hydro-7H-5,9:7,11-dimethanobenzo[9]annulen-7-yl)urea]
< 10	COc1cc2c(cc1OC)C1CC3(C)CC2CC(NC(=O)NC2CCN(C(C)=O)CC2)(C1)C3 [Example 71, 1-(1-acetylpiperidin-4-yl)-3-(2,3-dimethoxy-9-methyl-5,6,8,9,10,11-hexahydro-7H-5.9:7,11-dimethanobenzo[9]annulen-7-yl)urea]
< 10	CC12CC3CC(NC(=O)NC4CCC(Oc5ccc(C(=O)O)cc5)CC4)(CC(C1)c1ccccc13)C2 (centres unmarked) [Example 44, 4-(((1r,4r)-4-(3-(9-methyl-5,6,8,9,10,11-hexahydro-7H-5,9:7,11-dimethanobenzo[9]annulen-7-yl)ureido)cyclohexyl)oxy)benzoic acid]
< 10	CC12CC3CC(NC(=O)NC4CCN(C(=O)c5ccccc5F)CC4)(CC(C1)c1ccccc13)C2 [Example 66, 1-(1-(2-fluorobenzoyl)piperidin-4-yl)-3-(9-methyl-5,6,8,9,10,11-hexa-hydro-7H-5,9:7,11-dimethanobenzo[9]annulen-7-yl)urea]
< 10	CC12CC3CC(NC(=O)NC4CCN(Cc5ccccc5)CC4)(CC(C1)c1ccccc13)C2 [Example 48, 1-(1-benzylpiperidin-4-yl)-3-(9-methyl-5,6,8,9,10,11-hexahydro-7H-5,9:7,11-dimethanobenzo[9]annulen-7-yl)urea]
< 10	CC(=O)N1CCC(NC(=O)NC23CC4CC(C)(CC(C2)c2cc([N+](=O)[O-])ccc24)C3)CC1 (centres unmarked) [Example 52, 1-(1-acetylpiperidin-4-yl)-3-(9-methyl-2-nitro-5,6,8,9,10,11-hexahydro-7H-5,9:7,11-dimethanobenzo[9]annulen-7-yl)urea]
< 10	COc1ccc2c(c1)C1CC3(C)CC2CC(NC(=O)NC2CCN(C(C)=O)CC2)(C1)C3 (centres unmarked) [Example 69, 1-(1-acetylpiperidin-4-yl)-3-(2-methoxy-9-methyl-5,6,8,9,10,11-hexa-hydro-7H-5.9:7,11-dimethanobenzo[9]annulen-7-yl)urea]
10 to 50	CC12CC3CC(NC(=O)Nc4ccc(F)c(F)c4F)(CC(C1)c1ccccc13)O2 [Example 59, 1-(5-methyl-1,5,6,7-tetrahydro-1,5:3,7-dimethanobenzo[e]oxonin-3(2H)-yl)-3-(2,3,4-trifluorophenyl)urea]
10 to 50	CC12CC3CC(NC(=O)NC4CCC(Oc5ccc(C(=O)O)cc5)CC4)(CC(C1)c1ccccc13)O2 (centres unmarked) [Example 43, 4-(((1r,4r)-4-(3-(5-methyl-1,5,6,7-tetrahydro-1,5:3,7-dimethanobenzo [e]oxonin-3(2H)-yl)ureido)cyclohexyl)oxy)benzoic acid]
< 10	CC(=O)N1CCC(NC(=O)NC23CC4CC(C)(CC(C2)c2c(F)cccc24)C3)CC1 (centres unmarked) [Example 70, 1-(1-acetylpiperidin-4-yl)-3-(1-fluoro-9-methyl-5,6,8,9,10,11-hexahydro-7H-5,9:7,11-dimethanobenzo[9]annulen-7-yl)urea]
< 10	CC(=O)c1ccc2c(c1)C1CC3(C)CC2CC(NC(=O)NC2CCN(C(C)=O)CC2)(C1)C3 (centres unmarked) [Example 51, 1-(2-acetyl-9-methyl-5,6,8,9,10,11-hexahydro-7H-5,9:7,11-dimethano-benzo[9]annulen-7-yl)-3-(1-acetylpiperidin-4-yl)urea]
< 10	CC12CC3CC(NC(=O)Nc4ccc(F)c(F)c4F)(CC(C1)c1ccccc13)C2 [Example 58, 1-(9-methyl-6,7,8,9,10,11-hexahydro-5H-5,9:7,11-dimethanobenzo[9]annulen-7-yl)-3-(2,3,4-trifluorophenyl)urea]
< 10	CC(=O)N1CCC(NC(=O)NC23CC4CC(F)(CC(C2)c2c(F)cccc24)C3)CC1 (centres unmarked) [Example 74, 1-(1-acetylpiperidin-4-yl)-3-(1,9-difluoro-5,6,8,9,10,11-hexahydro-7H-5,9:7,11-dimethanobenzo[9]annulen-7-yl)urea]
